The values below come from publication PMC6337631, “Effective Tetradentate Compound Complexes against Leishmania spp. that Act on Critical Enzymatic Pathways of These Parasites” (Molecules, 2018).

One assay concerns the target T1, human CuZn-SOD (Homo sapiens, UniProt P00441).
T1 construct: purchased Sigma Chemical Co. (St. Louis, MO, USA)
Briefly: SOD inhibition assay, human CuZn-SOD. In kind it is biochemical. The conditions noted are these: assayed 100 µM to 0.1 µM; non-linear regression. The protocol: The previous extraordinary results prompted us to evaluate the inhibitory effect of 3, 5–8 and 10 on the SOD activity. […]
Parasite cells were collected in the exponential growth phase by centrifugation (400g for 10 min). The pellet obtained after centrifugation was lysated by sonication, processed according to [38] and obtained the homogenate fraction which contained the parasite Fe-SOD. The protein content was quantified using the Sigma Bradford test, which uses BSA as a standard (no trace ability was certified for the BSA standard). Superoxide dismutase activities were determined using a method previously described, which measures the reduction in nitrobluetetrazolium (NBT) by superoxide ions. Human CuZn-SOD. Substrates used in these assays were obtained from Sigma Chemical Co. (St. Louis, MO, USA). Resulting data were analysed using the Newman−Keuls test.

In assay [1] the test system is Leishmania donovani promastigote forms. Briefly: Promastigote test (extracellular forms), L. donovani. In kind it is cell-based. The conditions noted are these: 72 h, 100 µM to 1 µM, mean ± SD. The procedure:
(§1) Promastigote forms of three different Leishmania spp., L. donovani (MHOM/PE/84/LC26), L. infantum (MCAN/ES/2001/UCM-10) and L. braziliensis (MHOM/BR/1975/M2904), were cultured in vitro in Medium Trypanosomes Liquid (MTL) supplemented with 10% inactivated foetal calf serum (FCS) in an air atmosphere at 28 °C, in Roux flasks (Corning, Manassas, VA, USA) with a surface area of 75 cm^2, according to [33].
(§2) The compounds and the reference drug Glu were dissolved in DMSO (Panreac, Barcelona, Spain) and tested from 100 µM to 1 µM with 0.1% (v/v) DMSO final concentration in plates. Therefore, controls were prepared including 0.1% (v/v) of this component, as previously described.
(§3) Promastigote forms were collected in the exponential growth phase and seeded at 1 × 10^5 parasites/mL in 24-well microplates (Nunc, Naperville, IL, USA), after adding each compound at concentrations from 100 µM to 1 µM and cultured in 500 μL/well volumes at 28 °C. After 72 h incubation, the leishmanicidal activity was assessed using a Neubauer haemocytometric chamber in comparison with the control cultures. […] Each drug concentration was tested in triplicate in four separate determinations.

For assay [2], the system named is J774.2 murine macrophages. Kind of assay: Cytotoxicity test on macrophages by flow cytometry. Format: cell-based, mouse. The conditions noted are these: J774.2 macrophages, 72 h, read-out: Toxicity IC50 Macrophage. The procedure:
as §2
The macrophage line J774.2 [European collection of cell cultures (ECACC) number 91051511] was derived in 1968 from a tumour in a female BALB/c mouse. Macrophages were grown in humidified 95% air, 5% CO2 atmosphere at 37 °C in Minimal Essential Medium (MEM) with 2 mM glutamine and 20% (v/v) inactivated FCS. The cytotoxicity test on macrophages was performed by Flow cytometry analysis according to a method previously described. Briefly, cells were seeded at a density of 5 × 10^4 cells/well in 24-well microplates (Nunc, Naperville, IL, USA). After 48 h incubation, the medium was removed, and fresh medium was added together with each test compound at concentrations from 100 µM to 1 µM and cultured in 500 μL/well volumes for 72 h. Thereafter, cells were recovered by centrifugation, and cell viability was determined by Flow cytometry (FACS Vantage flow cytometer, Becton Dickinson, San Jose, CA, USA) after incubating the cells with propidium iodide ([…]) and fluorescein diacetate (100 ng/mL). The percentage of viability was calculated in comparison with the control cultures. […] Each drug concentration was tested in triplicate in four separate determinations.
In general terms: In flow cytometry, cells or beads pass a laser one at a time.

Assay [3] relates to Leishmania infantum amastigote forms. Briefly: Amastigote test (intracellular forms in J774.2 macrophages), L. infantum. Format: cell-based. The conditions noted are these: 72 h, mean ± SD. The procedure: as §1, §2
(§4) J774.2 macrophages were grown and seeded at a density of 1 × 10^4 cells/well in 24-well microplates (Nunc) with rounded coverslips on the bottom and cultured for 48 h in humidified 95% air, 5% CO2 atmosphere at 37 °C in Minimal Essential Medium (MEM) with 2 mM glutamine and 20% (v/v) inactivated FCS. Adherent macrophages were infected with metacyclic promastigotes in the stationary growth phase of L. donovani, L. infantum and L. braziliensis at a multiplicity of infection (MOI) ratio of 1:10 and maintained for 24 h. Non-phagocytosed parasites were removed by washing, and after addition of the testing compounds at concentrations from 100 µM to 1 µM, cultured in 500 μL/well volumes. Control cultures were also included. After 72 h incubation, leishmanicidal activity was assessed based on the number of amastigotes in treated and untreated cultures in methanol-fixed and Giemsa-stained preparations by analyzing 500 host cells distributed in randomly chosen microscopic fields. The leishmanicidal effect was calculated as described to determine the leishmanicidal activity in the promastigote forms. Each drug concentration was tested in triplicate in four separate determinations.

Assay [4] concerns Leishmania braziliensis promastigote forms. Kind of assay: Promastigote test (extracellular forms), L. braziliensis. The conditions noted are these: 72 h, 100 µM to 1 µM, mean ± SD. In kind it is cell-based. The protocol:
as §1, §2, §3

Assay [5] concerns Leishmania braziliensis amastigote forms. Briefly: Amastigote test (intracellular forms in J774.2 macrophages), L. braziliensis. Format: cell-based. The conditions noted are these: 72 h, mean ± SD. The protocol:
as §1, §2, §4

The test system of assay [6] is L. braziliensis promastigotes. Briefly: Ultrastructural alterations by TEM, L. braziliensis. Format: cell-based, Leishmania braziliensis. The following applies: 72 h at IC25 concentration. The procedure: (§5) Parasites were cultured at a density of 5 × 10^5 cells/mL with medium containing the tested compounds at IC25 concentrations. After 72 h at 28 °C, the cultures were processed using a technique previously described and analysed by TEM (LIBRA 120 PLUS, Zeiss, Barcelona, Spain).

In assay [7] the test system is L. infantum promastigotes. Kind of assay: Ultrastructural alterations by TEM, L. infantum. In kind it is cell-based, Leishmania infantum. The following applies: 72 h at IC25 concentration. The procedure:
as §5

For assay [8], the system named is L. donovani promastigotes. Briefly: Ultrastructural alterations by TEM, L. donovani. Format: cell-based, Leishmania donovani. The following applies: 72 h at IC25 concentration. The protocol: as §5
The test system of assay [9] is Leishmania donovani amastigote forms. Briefly: Amastigote test (intracellular forms in J774.2 macrophages), L. donovani. In kind it is cell-based. The conditions noted are these: 72 h, mean ± SD. The procedure:
as §1, §2, §4

The test system of assay [10] is Leishmania infantum promastigote forms. Kind of assay: Promastigote test (extracellular forms), L. infantum. The conditions noted are these: 72 h, 100 µM to 1 µM, mean ± SD of four determinations. In kind it is cell-based. The protocol:
as §1, §2, §3

Assay [11] has as its system Leishmania braziliensis infection of J774.2 macrophages. Briefly: Infectivity assay, L. braziliensis. In kind it is cell-based. The conditions noted are these: IC25 concentration; last day of the experiment (day 10). The procedure:
(§6) After the initial in vitro studies we were interested in finding out if the six most leishmanicidal compounds could also prevent the infection of host cells. For this reason, we conducted an assay in which the J774.2 macrophages were exposed to the metacyclic promastigotes and the compound at IC25 concentration at the same time. The propagation of the parasitic infection was determined by measuring the infection rate and the average number of amastigotes per macrophage cell present during the 10-day treatment period. In addition, the endocytic (short-time of infection) and infection (long-time of infection) indexes were calculated.
(§7) Adherent macrophages were grown, seeded and infected with metacyclic promastigotes as mentioned above. The compounds at IC25 concentrations (calculated using linear regression analysis from the Kc values of the concentrations employed) were added immediately after infection and incubation was performed for 12 h at 37 °C in humidified 95% air, 5% CO2 atmosphere. in humidified 95% air, 5% CO2 atmosphere at 37 °C Non-phagocytosed parasites and drugs were removed by washing, and then the infected cultures were grown for 10 days, adding fresh culture medium every 48 h, according to [35]. Amastigotes per macrophage count was determined in methanol-fixed and Giemsa-stained preparations as mentioned above every 48 h. […]

For assay [12], the system named is Leishmania infantum infection of J774.2 macrophages. Kind of assay: Infectivity assay, L. infantum. The following applies: IC25 concentration; 10-day infectivity assay. Format: cell-based. The procedure: as §6, §7

Read-outs that look alike come from different tables or passages of the source. Bounds are passed on as bounds.

T1 sequence (P00441 whole entry): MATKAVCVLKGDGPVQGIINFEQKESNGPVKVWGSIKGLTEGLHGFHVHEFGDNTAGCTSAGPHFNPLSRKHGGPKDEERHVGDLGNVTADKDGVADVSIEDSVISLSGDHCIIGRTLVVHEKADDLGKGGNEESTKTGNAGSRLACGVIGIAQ

On to `c1ccc(CN2CCN(Cc3ccccn3)CCN(Cc3ccccn3)CC2)nc1` [Compound 10], for which the IC50 (as a rule, the concentration needed to halve the response being measured) was over 300 µM at human CuZn-SOD; 18.6 ± 0.9 µM in [1] (Leishmania donovani); 126 ± 7.1 µM in assay [2] (Mus musculus); 10.4 ± 0.1 µM in assay [3] (Leishmania infantum); 5.5 ± 0.8 µM in assay [4] (Leishmania braziliensis); 11.9 ± 0.8 µM in assay [5] (Leishmania braziliensis). The figures for the IC50 in [9] (Leishmania donovani) and in assay [10] (Leishmania infantum) were 11.6 ± 3.3 µM and 2.6 ± 0.7 µM, respectively. Also, the “ultrastructural alterations of L. braziliensis promastigotes (TEM)” value in assay [6] is recorded as “shrunken or dehydrated”. The “ultrastructural alterations of L. infantum promastigotes (TEM)” value in assay [7] is on record as “most destructive compounds”. For the same compound, in assay [8], the “ultrastructural alterations of L. donovani promastigotes (TEM)” value is on record as “most lethal end result”.
With “meglumine antimoniate [Glucantime, reference compound]”, the IC50 in [1] was determined as 27.3 ± 4.3 µM; in assay [2] it was 15.2 ± 1.3 µM; in [3], 24.2 ± 2.6 µM; in [4], 25.6 ± 1.6 µM; in [5] it was 30.4 ± 6.1 µM; in [9] it was 33.3 ± 3.7 µM. In [10], this compound gave an IC50 of 18 ± 3.1 µM. Also, the “percentage of decrease in infection rate in comparison to the control, L. braziliensis” value in [11] amounted to 36%.
Consider `CN1CCN(C)CCN(Cc2ccccn2)CC1.O=S(=O)([O-])C(F)(F)F.O=S(=O)([O-])C(F)(F)F.[Fe+2]` [Compound 1], for which the IC50 in [1] is 28.6 ± 5.8 µM; in [2], 37.9 ± 4.2 µM; in [3] it was 20.5 ± 1.8 µM; in assay [4] it was 22.3 ± 0.6 µM; in assay [5] it was 21.3 ± 0.9 µM; in assay [9], 12.5 ± 2.7 µM. For the same compound, the IC50 in assay [10] stood at 18.5 ± 1.6 µM.
“[Fe^II2(TACN2)(CH3CN)6](ClO4)4 [Compound 2]”: the IC50 came to 19.7 ± 1.7 µM in [1]; 106 ± 8.8 µM in assay [2]; 57.5 ± 2.6 µM in assay [3]; 37.2 ± 1.9 µM in assay [4]; 12.5 ± 1.5 µM in assay [5]; 16.3 ± 2.5 µM in assay [9]. The IC50 in [10] amounted to 52.6 ± 3.1 µM.
In the case of `CN(Cc1ccccn1)C1CCCCC1N(C)Cc1ccccn1` (centres unmarked) [Compound 8], the IC50 was over 250 µM against human CuZn-SOD; 31.7 ± 2.4 µM in assay [1] (Leishmania donovani); 268 ± 16.2 µM in assay [2] (Mus musculus); 22.5 ± 3.1 µM in assay [3] (Leishmania infantum); 73.8 ± 3.6 µM in assay [4] (Leishmania braziliensis); 21.7 ± 1.4 µM in assay [5] (Leishmania braziliensis). The IC50 came out at 1.9 ± 0.3 µM in assay [9] (Leishmania donovani) and 83 ± 9.9 µM in [10] (Leishmania infantum). Besides, in assay [12], the “day at which the decline in the infection rate appeared, L. infantum” value was 0.5 days. The “ultrastructural alterations of L. braziliensis promastigotes (TEM)” value in assay [6] was “round and lacked in ribosomes”. Moreover, the “ultrastructural alterations of L. infantum promastigotes (TEM)” value in assay [7] is given as “most destructive compounds”. Further, in [8], the “ultrastructural alterations of L. donovani promastigotes (TEM)” value is “expanded and disperse Golgi apparatus”.
For `CN1CCN(C)CCN(Cc2ccccn2)CC1` [Compound 9], the IC50 came to 29.5 ± 3.6 µM in [1] (Leishmania donovani); 100 ± 4.8 µM in assay [2] (Mus musculus); 33.4 ± 3.2 µM in assay [3] (Leishmania infantum); 53.2 ± 3.6 µM in assay [4] (Leishmania braziliensis); 30.7 ± 2.5 µM in [5] (Leishmania braziliensis); 14.5 ± 2.7 µM in assay [9] (Leishmania donovani). Also, in assay [10] (Leishmania infantum), 71.7 ± 10 µM corresponded to half-maximal inhibition (IC50).
For `CN1CCN(C)CCN(CCN2CCN(C)CCN(C)CC2)CC1` [Compound 11, TACN2], the IC50 in assay [1] (Leishmania donovani) came to 29.5 ± 4.1 µM; in assay [2] (Mus musculus), 75.1 ± 4.7 µM; in assay [3] (Leishmania infantum) it was 34.6 ± 2.5 µM; in assay [4] (Leishmania braziliensis), 60.6 ± 3.8 µM; in assay [5] (Leishmania braziliensis), 30.4 ± 1.3 µM; in assay [9] (Leishmania donovani), 19.8 ± 2.6 µM. The IC50 in assay [10] (Leishmania infantum) is 87.5 ± 5.1 µM.
